Test system: 327498-153-R-J2-PDC complex spheroid growth, % test/control
Assay: Anticancer human tumor 327498-153-R-J2-PDC patient-derived uterine carcinosarcoma cell line growth inhibition [Asc]
Details: for IC50: curve of first compound; for viability, T/C: stronger effect = lower value
Method in brief: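 Complex spheroids combining tumor cells with HUVEC endothelial cells and human MSCs, at 37 degrees C, 5% CO2; agents tested alone or combined, half-log dilutions from at or near clinical Cmax, or 10 microM if Cmax unknown.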

[1] = second compound 0.1 µM, first compound 0.00316 µM
[2] = second compound 0.1 µM, first compound 0.01 µM
[3] = second compound 0.1 µM, first compound 0.0316 µM
[4] = second compound 0.1 µM, first compound 0.1 µM
[5] = second compound 0.1 µM, first compound 0.316 µM
[6] = second compound 0.1 µM, first compound 1 µM
[7] = second compound 0.316 µM, first compound 0.00316 µM
[8] = second compound 0.316 µM, first compound 0.01 µM
[9] = second compound 0.316 µM, first compound 0.0316 µM
[10] = second compound 0.316 µM, first compound 0.1 µM
[11] = second compound 0.316 µM, first compound 0.316 µM
[12] = second compound 0.316 µM, first compound 1 µM
[13] = second compound 1 µM, first compound 0.00316 µM
[14] = second compound 1 µM, first compound 0.01 µM
[15] = second compound 1 µM, first compound 0.0316 µM
[16] = second compound 1 µM, first compound 0.1 µM
[17] = second compound 1 µM, first compound 0.316 µM
[18] = second compound 1 µM, first compound 1 µM
[19] = second compound 3.16 µM, first compound 0.00316 µM
[20] = second compound 3.16 µM, first compound 0.01 µM
[21] = second compound 3.16 µM, first compound 0.0316 µM
[22] = second compound 3.16 µM, first compound 0.1 µM
[23] = second compound 3.16 µM, first compound 0.316 µM
[24] = second compound 3.16 µM, first compound 1 µM
[25] = second compound 10 µM, first compound 0.00316 µM
[26] = second compound 10 µM, first compound 0.01 µM
[27] = second compound 10 µM, first compound 0.0316 µM
[28] = second compound 10 µM, first compound 0.1 µM
[29] = second compound 10 µM, first compound 0.316 µM
[30] = second compound 10 µM, first compound 1 µM
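Further: spheroids exposed to compound for 7 days after 3 days of growth.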
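Wherever viability, T/C is given: 100% = DMSO vehicle control wells.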

| IC50 (second compound 0.1 µM) [nM] | IC50 (second compound 0.316 µM) [nM] | IC50 (second compound 1 µM) [nM] | IC50 (second compound 3.16 µM) [nM] | IC50 (second compound 10 µM) [nM] | SMILES | viability, T/C [1] [%] | viability, T/C [2] [%] | viability, T/C [3] [%] | viability, T/C [4] [%] | viability, T/C [5] [%] | viability, T/C [6] [%] | viability, T/C [7] [%] | viability, T/C [9] [%] | viability, T/C [10] [%] | viability, T/C [15] [%] | viability, T/C [16] [%] | viability, T/C [21] [%] | viability, T/C [22] [%] | viability, T/C [27] [%] | viability, T/C [28] [%] | other results |
| --- | --- | --- | --- | --- | --- | --- | --- | --- | --- | --- | --- | --- | --- | --- | --- | --- | --- | --- | --- | --- | --- |
| > 1000 | > 1000 | > 1000 | > 1000 | > 1000 | CCN1CCN(Cc2ccc(Nc3ncc(F)c(-c4cc(F)c5nc(C)n(C(C)C)c5c4)n3)nc2)CC1 + Cc1c(S(C)(=O)=O)c(-c2cc(F)cc(N3CCN(c4ccc(NS(=O)(=O)c5ccc(NC(CCN6CCC(C(=O)OCCCP(=O)(O)O)CC6)CSc6ccccc6)c(S(=O)(=O)C(F)(F)F)c5)cc4)CC3)c2)c(-c2ccc(Cl)cc2)n1C(C)C | 101 | 94.9 | 76.3 | 64.1 | 64.5 | 67.8 | 94.7 | 78.2 | 63.9 | 85.9 | 65.7 | 72.1 | 55.8 | 145 | 105 | viability, T/C [8]: 95.2%; viability, T/C [11]: 49.7%; viability, T/C [12]: 55.8%; viability, T/C [13]: 95.3%; viability, T/C [14]: 93%; viability, T/C [17]: 56.9%; viability, T/C [18]: 57.2%; viability, T/C [19]: 105%; viability, T/C [20]: 94.7%; viability, T/C [23]: 62.3%; viability, T/C [24]: 49.5%; viability, T/C [25]: 184%; viability, T/C [26]: 172%; viability, T/C [29]: 96%; viability, T/C [30]: 79.4% |
| 10.9 | 11.4 | 7.37 | 8.06 | 10.3 | Cn1ncnc1[C@H]1c2n[nH]c(=O)c3cc(F)cc(c23)N[C@@H]1c1ccc(F)cc1 + Cc1c(S(C)(=O)=O)c(-c2cc(F)cc(N3CCN(c4ccc(NS(=O)(=O)c5ccc(NC(CCN6CCC(C(=O)OCCCP(=O)(O)O)CC6)CSc6ccccc6)c(S(=O)(=O)C(F)(F)F)c5)cc4)CC3)c2)c(-c2ccc(Cl)cc2)n1C(C)C | 89.5 | 51.4 | 19.3 | 7.05 | – | – | 86.9 | 14.9 | 6.5 | 15.3 | 5.39 | 14.9 | 4.76 | 18.2 | 5.74 | viability, T/C (second compound 0.1 µM, first compound 0.000316 µM): 103%; viability, T/C (second compound 0.1 µM, first compound 0.001 µM): 97.1%; viability, T/C (second compound 0.316 µM, first compound 0.000316 µM): 92.6%; viability, T/C (second compound 0.316 µM, first compound 0.001 µM): 84.5%; viability, T/C [8]: 54%; viability, T/C (second compound 1 µM, first compound 0.000316 µM): 99.3%; viability, T/C (second compound 1 µM, first compound 0.001 µM): 104%; viability, T/C [13]: 81.7%; viability, T/C [14]: 37.7%; viability, T/C (second compound 3.16 µM, first compound 0.000316 µM): 92.7%; viability, T/C (second compound 3.16 µM, first compound 0.001 µM): 91.6%; viability, T/C [19]: 80.3%; viability, T/C [20]: 42.2%; viability, T/C (second compound 10 µM, first compound 0.000316 µM): 174%; viability, T/C (second compound 10 µM, first compound 0.001 µM): 178%; viability, T/C [25]: 150%; viability, T/C [26]: 50.1% |
| 3740 | 2530 | 2490 | 2500 | 3150 | O=C(c1cc(Cc2n[nH]c(=O)c3ccccc23)ccc1F)N1CCN(C(=O)C2CC2)CC1 + Cc1c(S(C)(=O)=O)c(-c2cc(F)cc(N3CCN(c4ccc(NS(=O)(=O)c5ccc(NC(CCN6CCC(C(=O)OCCCP(=O)(O)O)CC6)CSc6ccccc6)c(S(=O)(=O)C(F)(F)F)c5)cc4)CC3)c2)c(-c2ccc(Cl)cc2)n1C(C)C | – | – | 103 | 102 | 88.6 | 88.1 | – | 85.4 | 89.2 | 94.5 | 102 | 94 | 89.5 | 164 | 164 | viability, T/C (second compound 0.1 µM, first compound 3.16 µM): 55.5%; viability, T/C (second compound 0.1 µM, first compound 10 µM): 9.69%; viability, T/C [11]: 86.4%; viability, T/C [12]: 75.4%; viability, T/C (second compound 0.316 µM, first compound 3.16 µM): 43.9%; viability, T/C (second compound 0.316 µM, first compound 10 µM): 7.08%; viability, T/C [17]: 86.9%; viability, T/C [18]: 76.9%; viability, T/C (second compound 1 µM, first compound 3.16 µM): 43%; viability, T/C (second compound 1 µM, first compound 10 µM): 6.29%; viability, T/C [23]: 86%; viability, T/C [24]: 76%; viability, T/C (second compound 3.16 µM, first compound 3.16 µM): 43.2%; viability, T/C (second compound 3.16 µM, first compound 10 µM): 4.54%; viability, T/C [29]: 157%; viability, T/C [30]: 112%; viability, T/C (second compound 10 µM, first compound 3.16 µM): 49.1%; viability, T/C (second compound 10 µM, first compound 10 µM): 6.96% |
| 277 | 215 | 196 | 146 | 458 | O=C(c1ccc(F)c(F)c1Nc1ccc(I)cc1F)N1CC(O)([C@@H]2CCCCN2)C1 + Cc1c(S(C)(=O)=O)c(-c2cc(F)cc(N3CCN(c4ccc(NS(=O)(=O)c5ccc(NC(CCN6CCC(C(=O)OCCCP(=O)(O)O)CC6)CSc6ccccc6)c(S(=O)(=O)C(F)(F)F)c5)cc4)CC3)c2)c(-c2ccc(Cl)cc2)n1C(C)C | 92.1 | 96.2 | 81.7 | 67.3 | 49 | 18.4 | 91.5 | 76.9 | 62.9 | 74.5 | 58.7 | 75.1 | 56.4 | 131 | 97.9 | viability, T/C [8]: 80.4%; viability, T/C [11]: 44.1%; viability, T/C [12]: 14.6%; viability, T/C [13]: 98.6%; viability, T/C [14]: 80.6%; viability, T/C [17]: 49%; viability, T/C [18]: 12.9%; viability, T/C [19]: 91.5%; viability, T/C [20]: 84.9%; viability, T/C [23]: 35.9%; viability, T/C [24]: 15.4%; viability, T/C [25]: 170%; viability, T/C [26]: 167%; viability, T/C [29]: 70.8%; viability, T/C [30]: 17.1% |

Reference: PubChem BioAssay AID1963424 (Molecular Pharmacology Branch, DTP, NCI, 2024)
